Reference: ChEMBL document CHEMBL4043091, “Lead Discovery of Dual G-Quadruplex Stabilizers and Poly(ADP-ribose) Polymerases (PARPs) Inhibitors: A New Avenue in Anticancer Treatment” (J Med Chem, 2017)
Active and inactive are the calls of the source. The calls are words filed in the database; no cut-off is given here.

Assays:
Homo sapiens [1] = species: Homo sapiens; test: Binding affinity to G-quadruplex DNA in human BJeH-LT cells at 1 uM after 24 hrs by hoechst staining-based immunofluorescence analysis; format: cell-based
Homo sapiens [2] = species: Homo sapiens; test: Binding affinity to human telomeric 23 G-quadruplex DNA assessed as change in melting temperature at 10 molequiv after 30 mins by CD spectra analysis
Homo sapiens [3] = species: Homo sapiens; test: Binding affinity to human telomeric 26 G-quadruplex DNA assessed as change in melting temperature at 10 molequiv after 30 mins by CD spectra analysis
Homo sapiens [4] = species: Homo sapiens; test: Binding affinity to human telomeric 23-p G-quadruplex DNA assessed as change in melting temperature at 10 molequiv after 30 mins by CD spectra analysis
Homo sapiens [5] = species: Homo sapiens; test: Inhibition of PARP in human BJeH-LT cells assessed as reduction of Poly(ADP-ribosyl)ation at 1 uM preincubated for 16 hrs followed by [3H]NAD addition measured after 10 mins by liquid scintillation counting method; format: cell-based
[6] = biological target: Poly [ADP-ribose] polymerase 1 (Homo sapiens, UniProt P09874); test: Inhibition of recombinant human PARP1 expressed in Escherichia coli assessed as reduction of Poly(ADP-ribosyl)ation after 15 mins in presence of [3H]NAD+/cleaved DNA/histones by scintillation counting method
BJeH-LT [7] = test: Induction of DNA damage in human BJeH-LT cells assessed as increase in gamma-H2AX foci formation at 1 uM after 24 hrs followed by compound washout by hoechst staining-based immunofluorescence analysis; format: functional, cell-based
Homo sapiens [8] = species: Homo sapiens; test: Binding affinity to human telomeric 23-p G-quadruplex DNA assessed as increase in melting temperature up to 240 uM after 30 mins by CD spectra analysis
[9] = Binding affinity to 12-mer duplex DNA (unknown origin) at 10 molequiv after 30 mins by CD spectra analysis
BJeH-LT [10] = test: Induction of DNA damage in human BJeH-LT cells assessed as increase in gamma-H2AX foci formation at 1 uM after 24 hrs by hoechst staining-based immunofluorescence analysis; format: functional, cell-based
hTERT-BJ = test: Induction of DNA damage in human hTERT-BJ cells assessed as increase in gamma-H2AX foci formation at 1 uM after 24 hrs by hoechst staining-based immunofluorescence analysis; format: cell-based
BJeH-LT [11] = test: Induction of DNA damage in human BJeH-LT cells assessed as increase in telomere's dysfunction induced foci positive nuclei at 1 uM after 24 hrs by hoechst staining-based immunofluorescence analysis; format: functional, cell-based
Homo sapiens [12] = species: Homo sapiens; test: Binding affinity to human telomeric 23-p G-quadruplex DNA assessed as increase in melting temperature at lower concentration after 30 mins by CD spectra analysis
Homo sapiens [13] = species: Homo sapiens; test: Binding affinity to human telomeric 23 G-quadruplex DNA assessed as increase in melting temperature up to 300 uM after 30 mins by CD spectra analysis
Homo sapiens [14] = species: Homo sapiens; test: Binding affinity to human telomeric 26 G-quadruplex DNA assessed as increase in melting temperature up to 300 uM after 30 mins by CD spectra analysis
[15] = Binding affinity to human Cy5-labeled telomeric 26 G-quadruplex DNA by […] analysis
[16] = Binding affinity to 5'-FAM/3'-TAMRA labelled F21T G-quadruplex DNA (unknown origin) assessed as change in melting temperature at 4 uM by FRET assay
[17] = Binding affinity to 5'-FAM/3'-TAMRA labelled F21T G-quadruplex DNA (unknown origin) assessed as increase in melting temperature at 4 uM in presence of 5 to 10 uM 12-mer duplex DNA by FRET assay
DLD-1 [18] = test: Antiproliferative activity against human DLD1 cells harboring BRCA2 up to 2 uM after 6 days by MTT assay; format: functional, cell-based
DLD-1 [19] = test: Antiproliferative activity against human DLD1 cells deficient BRCA2 up to 2 uM after 6 days by MTT assay; format: functional, cell-based
BJeH-LT [20] = test: Induction of DNA damage in human BJeH-LT cells assessed as increase in gamma-H2AX foci formation at >1 uM after 24 hrs by hoechst staining-based immunofluorescence analysis; format: functional, cell-based
Homo sapiens [21] = species: Homo sapiens; test: Binding affinity to human Cy5-labeled telomeric 26 G-quadruplex DNA at 10^-1 to 10^4 nM by […] analysis

Poly [ADP-ribose] polymerase 1, sequence (P09874 whole entry): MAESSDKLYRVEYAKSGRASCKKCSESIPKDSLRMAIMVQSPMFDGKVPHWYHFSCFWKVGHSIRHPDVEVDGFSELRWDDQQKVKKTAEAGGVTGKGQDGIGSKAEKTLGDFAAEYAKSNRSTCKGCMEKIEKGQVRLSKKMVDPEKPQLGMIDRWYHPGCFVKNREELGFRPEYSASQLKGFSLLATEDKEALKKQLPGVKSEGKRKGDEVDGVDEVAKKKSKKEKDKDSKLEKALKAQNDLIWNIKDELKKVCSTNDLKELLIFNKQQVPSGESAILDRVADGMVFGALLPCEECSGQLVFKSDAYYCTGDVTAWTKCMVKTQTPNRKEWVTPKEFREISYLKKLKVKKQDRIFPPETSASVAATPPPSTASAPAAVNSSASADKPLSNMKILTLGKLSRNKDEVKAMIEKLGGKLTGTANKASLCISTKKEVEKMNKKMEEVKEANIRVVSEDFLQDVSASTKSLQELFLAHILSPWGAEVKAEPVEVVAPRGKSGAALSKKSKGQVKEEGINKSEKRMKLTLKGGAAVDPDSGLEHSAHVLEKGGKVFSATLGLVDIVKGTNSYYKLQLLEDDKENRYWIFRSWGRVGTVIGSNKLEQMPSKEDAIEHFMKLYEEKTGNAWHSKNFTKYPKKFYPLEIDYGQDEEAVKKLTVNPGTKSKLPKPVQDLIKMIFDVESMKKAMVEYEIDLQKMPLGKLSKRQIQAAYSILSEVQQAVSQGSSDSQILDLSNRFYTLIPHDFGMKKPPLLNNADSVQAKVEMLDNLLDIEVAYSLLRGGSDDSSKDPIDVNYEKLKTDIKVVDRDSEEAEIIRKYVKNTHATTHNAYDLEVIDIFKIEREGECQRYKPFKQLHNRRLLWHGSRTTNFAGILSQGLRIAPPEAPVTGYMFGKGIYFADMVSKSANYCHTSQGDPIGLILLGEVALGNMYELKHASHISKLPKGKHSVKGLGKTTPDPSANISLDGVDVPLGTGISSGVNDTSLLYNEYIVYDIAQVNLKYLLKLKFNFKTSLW

| Structure (SMILES) | Activity (Homo sapiens [1]) | ΔTm (Homo sapiens [2]) | ΔTm (Homo sapiens [3]) | ΔTm (Homo sapiens [4]) | Activity (BJeH-LT [7]) | Activity (BJeH-LT [10]) | Activity (hTERT-BJ) | Activity (BJeH-LT [11]) | also measured |
| --- | --- | --- | --- | --- | --- | --- | --- | --- | --- |
| Oc1nc(-c2ccc(C(F)(F)F)cc2)nc2c1CSCC2 | inactive | – | – | – | – | – | – | – | – |
| O=C(NCCN1CCC(Cc2ccccc2)CC1)c1cc2[nH]c(=O)c3ccccc3c2s1 | – | 0.7 °C | 2 °C | 4.2 °C | inactive | – | – | – | inhibition (Homo sapiens [5]): Active; IC50 [6]: 223 nM |
| Cc1nc2c(O)cccc2c(=O)[nH]1 | – | 0 °C | 1.1 °C | 2.4 °C | – | – | – | – | – |
| Cn1c(=O)c2ccccc2c2sc(C(=O)NCCN3CCC(Cc4ccccc4)CC3)cc21 | Active | 1.6 °C | 3 °C | 10.5 °C | inactive | Active | Non-Toxic | Active | Activity (Homo sapiens [8]): Active; Activity [9]: inactive |
| Cn1c(=O)c2cc(C(=O)NCCN3CCC(Cc4ccccc4)CC3)sc2c2ccccc21 | Active | 5.8 °C | 5.5 °C | 7 °C | inactive | Active | Non-Toxic | Active | Activity (Homo sapiens [12]): Active; Activity (Homo sapiens [13]): Active; Activity (Homo sapiens [14]): Active; Activity [9]: inactive; Kd [15]: 240 nM; ΔTm [16]: 4.5 °C; Activity [17]: Active |
| O=c1[nH]c2sccc2c2ccccc12 | inactive | – | – | – | – | inactive | – | – | Activity (DLD-1 [18]): inactive; Activity (DLD-1 [19]): inactive |
| COC(=O)c1cc2[nH]c(=O)c3ccccc3c2s1 | Active | 0.9 °C | 0.9 °C | 3 °C | inactive | – | – | – | Activity (BJeH-LT [20]): inactive |
| COC(=O)c1cc2c(s1)c1ccccc1c(=O)n2C | Active | -0.8 °C | 1.4 °C | 1.4 °C | inactive | Active | Non-Toxic | inactive | – |
| COC(=O)c1cc2c(=O)[nH]c3ccccc3c2s1 | Active | 1.5 °C | 2.2 °C | 1.9 °C | inactive | Active | Non-Toxic | inactive | – |
| COC1CCN(C(=O)c2cc(Cc3n[nH]c(=O)c4ccccc34)ccc2F)CC1 | inactive | 0.1 °C | 1.3 °C | 2.6 °C | – | – | – | – | – |
| CN1C(=O)C2C=C(C(=O)NCCN3CCC(Cc4ccccc4)CC3)SC2c2ccccc21 (stereo unspecified) | Active | – | – | – | – | – | – | Active | Activity (DLD-1 [18]): Active; Activity (DLD-1 [19]): Active |
| COC(=O)c1cc2c(=O)n(C)c3ccccc3c2s1 | Active | 0.4 °C | 0.4 °C | 2.4 °C | inactive | – | – | – | Activity (Homo sapiens [21]): inactive; Activity (BJeH-LT [20]): inactive |
| O=C(NCCN1CCC(Cc2ccccc2)CC1)c1cc2c(=O)[nH]c3ccccc3c2s1 | Active | 0.3 °C | 2.6 °C | 7.7 °C | inactive | Active | Non-Toxic | Active | Activity (Homo sapiens [8]): Active; Activity [9]: inactive |
